# Where two headings read alike, the source gives them in different places.
# How the values were obtained:
# Antibodies to HIV-1 = assay type: binding, human
# Description: The subject peptide compositions were immobilized onto latex beads and entrapped on a microporous membrane atop an absorbent material for the determination and/or quantitation of antibodies to HIV. Examples of such immunoassay apparatus and methods are the subject of U.S. Pat. Nos. 4,633,901 and 4,727,019, both incorporated herein by reference. The membrane concentration immunoassay involves three incubations comprising a total assay time of 10 minutes. Peptides tested were adsorbed to latex beads by the methods described above.
# Each sample was tested on a filtration unit comprising three spots on a 1.2 μm pore size nylon membrane. One spot comprising the test peptide/latex bead preparation, one spot comprising a positive procedural control and the other comprising a negative procedural control.
# The peptide/latex bead preparation was suspended in 0.1M Tris buffer, pH 7.2, 0.15M NaCl, 0.01M MgCl2, 10% sucrose, 2% fetal calf serum. Membranes were spotted with a 0.1-0.2% suspension of peptide/bead preparation. Negative procedural control spots were comprised of latex beads coated by adsorption with BSA. While positive procedural control spots were comprised of latex beads coated by adsorption with goat antihuman immunoglobulins.
# Serum or plasma samples (40 μl) were diluted 1:10 in dilution buffer (10% heat inactivated normal goat serum, 1% dextran sulfate, 0.2% Tween 20, 2.5% nonfat dry milk, 15 ppm Kathon CG, 0.005% antifoam A, in 20 mM sodium citrate buffer, pH 7.4). Diluted specimen was added to the surface of the membrane and allowed to absorb completely. After waiting 2 min. from the time of specimen addition, 1 ml of wash buffer (0.01M Tris-buffered saline, pH 6.0, 0.05M NaCl, 0.005M MgCl2, 0.1% sodium azide, 10 μg/ml nitro blue tetrazolium, 0.5M potassium thiocyanate) was added and allowed to completely absorb through the membrane. About 0.150 ml (3 drops) of goat anti-human Ig-alkaline phosphatase conjugate diluted in 10 mM phosphate buffered saline, pH 7.4, 0.2% goat gamma globulin, 1% bovine serum albumin, 1 mM MgCl2, 0.1 mM ZnCl2 was added to the membrane and allowed to absorb completely. The membrane was washed twice as above (2 ml) and about 0.150 ml (3 drops) of substrate (1M 2-amino-2-methyl-1-propanol, pH 10.3, 5 mg/ml 3-indoxyl phosphate) was added and allowed to absorb completely. After about 5 min. about 1 ml of 0.5M EDTA, pH 7.4, was passed through the membrane to stop the reaction. After the stop solution was completely absorbed the units were read visually or semi-quantitatively by reflectance.
# Antibodies to HIV-2 = experiment: EIA of dilutional series of HIV-2 positive sera; assay type: binding, human
# Description: Alternative methods of testing immunologic cross-reactivity were also used. In one such method L5 Peptides 39 and 39GC were tested by ELISA as previously described in U.S. Pat. No. 4,629,783. Briefly, stock solutions of peptides 39 and 39-GC were prepared in 6M Gu-HCl. Working dilutions of 20 µg/ml and 6 μg/ml respectively were prepared by dilution of stock solution 0 with 0.05M carbonate/bicarbonate buffer, pH 9.5. Wells of microtiter plates were filled with 100 μl of the working dilution of the peptides and allowed to stand overnight at room temperature. Coating solution was removed and 300 μl of blocking solution supra containing 0.5M ethanolamine was added for 1 hr. at room temperature. Blocking solution was removed and the plates were used immediately or allowed to dry and stored for later use.
# Plasma samples were diluted (See Table 1) in sample dilution buffer (above) and 100 μl was added to individual wells. Samples were incubated for 30 min. at 37° C., then removed and the wells were washed six times with 0.15M NaCl, 0.05% Tween 20. One hundred microliters of goat antihuman Ig-horseradish peroxidase conjugate diluted in citrate buffer, pH 7.0, 1% normal goat serum was added to each well for 30 min at 37° C. prior to washing six times as above. The ELISA assay was developed by adding 100 μl/well of substrate solution (80 μg/ml tetramethyl benzidine, 0.0015% hydrogen peroxide in citrate/phosphate buffer, pH 6.0) for 30 min. at room temperature. Reactions were stopped with the addition of 100 μl of H2SO4 per well, and the ratio of the optical density at 450 nm to 630 nm was determined by an automated ELISA reader. The cutoff value for a positive result was set at 0.225 Absorbance Units above the average absorbance obtained for three known negative samples.
# The immunoreactivity of HIV-2 peptides synthesized with protected cysteine thiol groups was determined. […] EIAs were performed as described above using viral lysates of HIV-1 and HIV-2 and peptides 39GC (HIV-1) and 41-2-3GC. Reactivity was determined for dilutions of two HIV-2 positive sera, F504282, obtained from a patient in New York, and “GOM,” provided by the Institut Pasteur.
# The assays were EIAs performed generally as described above with varying dilutions of HIV-2 positive serum specimens.
substance,measurement,setting,value
Cys-Gly-Gly-Arg-Ile-Leu-Ala-Val-Glu-Arg-Tyr-Leu-Lys-Asp-Gln-Gln-Leu-Leu-Gly-Ile-Trp-Gly-Cys*-Ser-Gly-Lys-Leu-Ile-Cys*-NH2 [Peptide 39GC],No. Positive/Total No.,Antibodies to HIV-1; Autoimmune Samples,0/51
same,No. Positive/Total No.,Antibodies to HIV-1; Normal Blood Bank Donors,0/1187
same,No. Positive/Total No.,Antibodies to HIV-1; Problematic HIV-I Seronegative Samples,0/72
same,No. Positive/Total No.,"Antibodies to HIV-1; Secondary, Atypical Syphillis Sera/HIV Neg.",0/26
same,No. Positive/Total No.,"Antibodies to HIV-1; Secondary, Atypical Syphillis Sera/HIV Pos.",4/4
same,No. Positive/Total No.,Antibodies to HIV-1; Western Blot Neg./LAV-EIA Pos.,0/79
same,No. Positive/Total No.,Antibodies to HIV-1; Western Blot Pos./LAV-EIA Pos. (OD < 1.5),120/120
same,No. Positive/Total No.,Antibodies to HIV-1; Western Blot Pos./LAV-EIA Pos. (OD > 1.5),29/29
same,No. Positive/Total No.,Antibodies to HIV-1; Western Blot p25 Neg./LAV/EIA Pos. (Atypical 1),0/39
same,No. Positive/Total No.,Antibodies to HIV-1; Western Blot p25 Pos./LAV-EIA Pos. (Atypical 2),0/170
same,Reactivity in EIA,"Antibodies to HIV-2; HIV-2 positive serum F504282 (A), 1:5",0.049
same,Reactivity in EIA,"Antibodies to HIV-2; HIV-2 positive serum F504282 (A), 1:10",0.042
same,Reactivity in EIA,"Antibodies to HIV-2; HIV-2 positive serum F504282 (A), 1:20",0.037
same,Reactivity in EIA,"Antibodies to HIV-2; HIV-2 positive serum F504282 (A), 1:40",0.035
same,Reactivity in EIA,"Antibodies to HIV-2; HIV-2 positive serum F504282 (A), 1:80",0.033
same,Reactivity in EIA,"Antibodies to HIV-2; HIV-2 positive serum F504282 (A), 1:160",0.040
same,Reactivity in EIA,"Antibodies to HIV-2; HIV-2 positive serum F504282 (A), 1:320",0.031
same,Reactivity in EIA,"Antibodies to HIV-2; HIV-2 positive serum F504282 (A), 1:640",0.031
same,Reactivity in EIA,"Antibodies to HIV-2; HIV-2 positive serum F504282 (A), 1:1280",0.039
same,Reactivity in EIA,"Antibodies to HIV-2; HIV-2 positive serum F504282 (A), 1:2560",0.030
same,Reactivity in EIA,"Antibodies to HIV-2; HIV-2 positive serum F504282 (A), Neat",0.075
same,Reactivity in EIA,"Antibodies to HIV-2; HIV-2 positive serum GOM (B), 1:2",0.052
same,Reactivity in EIA,"Antibodies to HIV-2; HIV-2 positive serum GOM (B), 1:4",0.037
same,Reactivity in EIA,"Antibodies to HIV-2; HIV-2 positive serum GOM (B), 1:8",0.040
same,Reactivity in EIA,"Antibodies to HIV-2; HIV-2 positive serum GOM (B), 1:16",0.031
same,Reactivity in EIA,"Antibodies to HIV-2; HIV-2 positive serum GOM (B), 1:32",0.035
same,Reactivity in EIA,"Antibodies to HIV-2; HIV-2 positive serum GOM (B), 1:64",0.074
same,Reactivity in EIA,"Antibodies to HIV-2; HIV-2 positive serum GOM (B), 1:128",0.031
same,Reactivity in EIA,"Antibodies to HIV-2; HIV-2 positive serum GOM (B), 1:256",0.035
same,Reactivity in EIA,"Antibodies to HIV-2; HIV-2 positive serum GOM (B), 1:512",0.040
same,Reactivity in EIA,"Antibodies to HIV-2; HIV-2 positive serum GOM (B), 1:1024",0.037
